Measurements from US20090203877A1, “X-RAY-DENSE CONJUGATE” (Eberhard-Karls-Universitaet Tuebingen Universitaetsklinkum, priority 2006, published 2009).
“Also recorded” adds a separate entry of the source.

Legend:
[1] = tested on: human malignant LN18 glioma cells; experiment: Uptake/staining of cells by FITC-labelled conjugates (CLSM, FACS, semi-thin sections); assay type: cell-based; conditions: for staining rate / number of stained cells: free compound co-incubated with conjugate 3 (260 μM); for cells strongly stained by FITC, FACS histogram: free unbound compound incubated in combination with conjugate 3 (260 μM)
Procedure: (§1) The human malignant U373 and LN18 glioma cells were cultivated in 75 cm^2 culture flasks (Corning Costar) (70% confluency) under the conditions as described under 1.4, detached from the flask bottom with Accutase™ (PAA Laboratories) and in the following distributed on Eppendorf tubes (Eppendorf, Hamburg, Germany) (6×10^6 per tube). The cells in the first tube serve as a control (only PBS buffer only). The cells in the other ten tubes were each incubated with benzoic acid (BA), monoiodobenzoic acid (MIBA) or diiodobenzoic acid (DIBA) alone (260 μM), conjugate 3 alone (260 μM), conjugate 3 plus either BA, MIBA or DIBA (260 μM), respectively, and the conjugates 9, 10, and 11 alone. (260 μM).
After an incubation of 20 minutes at 37° C./5% CO2 the cells were washed three times with PBS buffer and centrifuged at 800 rpm (rounds per minute) for 5 minutes. The fluorescence was measured in Becton Dickinson FACSCalibur as described under 1.4. The computer tomography was performed as described under 1.5.1. The examinations were repeated two times. […]
(§2) The FACS analysis was performed as described under 1.4. The assay was repeated two times.
(§3) For the CT and FACS examinations human LN18 and U373 glioma cells were cultivated in 75 cm^2 culture flasks (70% confluency) (conditions as described under section 1). Accutase™ (PAA Laboratories) was added to detach the cell from the culture bottom. The cells were collected and then distributed on Eppendorf-tubes (6×10^6 cells per tube). […] The next three tubes were used for the coincubation of the cells either with trichlorobenzoic acid (TCBA), trifluorobenzoic acid (TFBA) or tribromophenyl Isocyanat (TBPI) and the NLS-FITC-conjugate 3 (260 μM). As control cells were used which were only either incubated with CIBA, FIBA, TBPI (in each case 260 μM in PBS) or with PBS-buffer (native control) alone. […] The computer tomography and FACS analysis of the cell centrifuges were performed as described in 1.5.1 or 1.4, respectively for three times.
All measurements were performed on living cells.
All measurements were performed on living cells in triplicates.
A part of the cells which were stained for the FACS analysis, was fixed by paraformaldehyl with 2% Agar, dehydrogenized in ethanol, embedded in Lowicryl K4M (Polysciences, Eppelheim, Germany) and according to the information of the manufacturer UV-polymerised at room temperature. Semi-thin sections (about 0.4 μm) were cut and evaluated by means of fluorescence microscopy.

[2] = tested on: human malignant LN18 glioma cells; experiment: Cell viability / cell death (annexin-V-Alexa 568 binding, propidium iodide, FACS scatter morphology); assay type: cell-based; conditions: for influence on the cell viability: free compound alone, each 250 μM (FIG. 15)
Procedure: All measurements were performed on living, non-fixed cells. […] All measurements were performed on living cells. […] All measurements were performed on living cells in triplicates. […] All measurements were performed on living cells.

[3] = tested on: human malignant U373 glioma cells; experiment: Cell viability / cell death (MTT test, propidium iodide, annexin-V-Alexa 568 binding, FACS scatter morphology); conditions: 260 μM in PBS, 20 min, substance alone
Procedure: Human malignant U373-glioma cells were grown to 70% confluency in RPMI-1640 Ready Mix Medium containing L-Glutamine and 10% FBS-Gold (PAA laboratories, Pasching, Austria) at 37° C., 5% CO2 (vol/vol), in 4-well-plates (NUNC, Wiesbaden, Germany) with about 300,000 cells pro well. […] After this, the cells were washed three times with buffer and then incubated with Ready Mix Medium again. Cell viability was then assessed by the addition of methyl-thiazoyl-tetrazolium (MTT) salt (Sigma-Aldrich, Germany) at a concentration of 15 mg/ml. After 20 minutes, the production of formazan was investigated. When blue formazan granules were detected, propidium iodine (PI) was added to the medium (1 μM PI; Molecular Probes, Eugene, Oreg., USA) to detect cells with damaged cell membranes. […] Pictures were taken with a 3-CCD color video camera (MC3254P, Sony, Japan) and the Axiovision Software (Carl Zeiss, Jena, Germany). The intensity of cell fluorescence was recorded at the exposure time necessary for the production of the fluorescence images.
After imaging, Accutase™ (PAA laboratories, Pasching, Austria) was added to the wells to achieve detachment of the cells for further FACS analysis. Fluorescence was measured in a Becton Dickinson FACSCalibur. A total of 20,000 events per sample were analyzed. The investigations were performed in triplicate.
A sample of cells from each Eppendorf tube was subjected to the MTT test (described under 1.4) to determine microscopically whether the cells were viable. In vitro CT of the cell pellets was performed with a Somatom Sensation 16 (Siemens) which is used for routine clinical investigations.
Cells were incubated for 20 minutes with each of the conjugates dissolved in 0.1% DMSO/PBS at 260 μm. The cells were also incubated with TIBA and both of the non-TIBA-containing conjugates (3 and 4) separately in 0.1% DMSO/OBS at 260 μm. Both TIBA and the conjugates were dissolved in 0.1% DMSO/PBS at 260 μm for incubation due to the insolubility of TIBA (but not the conjugates) in pure PBS. As controls, the cells were incubated with PBS alone, 0.1% DMSO/PBS alone, and TIBA alone (260 μm in 0.1% DMSO/PBS).
The detection of phosphatidyl serine in the outer membrane leaflet of apoptotic cells was performed with the Annexin-V-Alexa™-568-reagent according to manufacturer's protocol (Roche Molecular Biochemicals, Indianapolis, USA). The confocal laser-scanning microscopy was performed on an inverted LSM 510 laser-scanning microscope (Carl Zeiss, Jena, Germany) (objectives: LD Achroplan 40×0.6, Plan Neofluar 20×0.50, 40×0.75). For fluorescence excitation, the 488 nm line of an argon-ion laser and the […] line of a helium-neon laser with appropriate beam splitters and barrier filters were used for FITC and Alexa respectively. Superimposed images of FITC- and Alexa-stained samples were created by overlaying coincident views. All measurements were performed on living, non-fixed cells.
Human malignant LN18 and U373 glioma cells were cultivated in four-well plates (NUNC, Wiesbaden, Germany) (about 300,000 cells per well) as described under 1.5. […] The cells were also coincubated either with CIBA, FIBA or TBPI as well as the NLS-FITC conjugate 3 (each 260 μM). As a control cells were used which were only incubated either with CIBA, FIBA or TBPI (260 μM in PBS) alone. After the incubation the cells were washed three times with PBS and in the following again incubated in Ready Mix Medium. The FITC-labelled conjugates and the Alexa-Annexin for the detection of phosphatidylserine as a signal of the cell death were localized with the confocal laser microscopy (CLSM) as in 1.6.1. All measurements were performed on living cells.

[4] = tested on: human vascular endothelial cells; conditions: traditional contrast media; cited from earlier work
[5] = tested on: human malignant U373 glioma cells; experiment: Uptake/staining of cells by FITC-labelled conjugates (fluorescence microscopy, CLSM, FACS, semi-thin sections); assay type: cell-based; conditions: free unbound compound incubated in combination with conjugate 3 (260 μM)
Procedure: Fluorescence was measured in a Becton Dickinson FACSCalibur. […] The investigations were performed in triplicate.
For CT and FACS human U373 glioma cells were grown under the same conditions in 75 cm^2 culture flasks (Corning Costar, Bodenheim, Germany) (70% confluency). Accutase™ (PAA laboratories, Pasching, Austria) was added to achieve detachment of the cells which were harvested and subsequently aliquoted into Eppendorf tubes (6×10^6 cells per tube). As in the investigations performed by fluorescence microscopy, the cells in the first tube served as a control (PBS only). The cells in the other tubes were incubated with 260 μM Ultravist, 260 μM TIBA in PBS and 26 μM, 260 μM and 2.6 mM conjugates 1-4 in PBS. After a 20 minute incubation period at 37° C. in an atmosphere of 5% CO2, the cells were washed three times in PBS and centrifuged at 800 rpm for 5 minutes.
The FACS analysis was performed as described under 1.4.
as §1
After an incubation of 20 minutes at 37° C./5% CO2 the cells were washed three times with PBS buffer and centrifuged at 800 rpm (rounds per minute) for 5 minutes. The fluorescence was measured in Becton Dickinson FACSCalibur as described under 1.4. The computer tomography was performed as described under 1.5.1. The examinations were repeated two times.
For the CT and FACS examinations human LN-18 and U373 glioma cells were cultivated in 75 cm^2 culture flasks (Corning Costar) (70% confluency) (conditions as described under 1.4). Accutase™ (PAA Laboratories) was added to detach the cells from the bottom of the culture flasks. The cells were collected and then distributed on Eppendorf tubes (6×10^6 cells per tube). The cells in the first two tubes serve as a control (in each case only PBS, LN18 and U373 glioma cells, native). The cells in the other tubes (in each case LN18 and U373 glioma cells) were incubated with a 260 μM or 2.6 mM solution of the conjugate 12 for 20 minutes at 37° C. and 5% CO2 and in the following washed for three times with PBS buffer and centrifuged for 5 minutes with 800 rpm (rounds per minute). For a small amount of the cells it was tested by the MMT test (see 1.4) how many of the cells were still viable. The computer tomography of the cell centrifuges was performed with the Somatom Sensation 16 (Siemens).
as §2
as §3, with “times. […]” for “times.”

[6] = 260 μM, 20 min, substance alone
[7] = free compound co-incubated with conjugate 3 (260 μM)

Row | Compound | staining rate / number of stained cells [1] | cell death / vitality (annexin-V-Alexa 568, propidium iodide) [2, 6] | influence on the cell viability [2] | cell death / vitality (annexin-V-Alexa 568, propidium iodide) [2, 7] | cytotoxic effects / signs of cell death [3] | further results
1 | tribromophenylisocyanate [TBPI] | only in the staining of the nucleus in few cells | does not result in a cell death | did not result in any influence on the cell viability | without an impairment of the vitality | – | staining rate / number of stained cells ([1]; listed as TPBI): did not result in any considerable change; cell death / vitality (annexin-V-Alexa 568, propidium iodide) ([2]; free compound co-incubated with conjugate 3 (260 μM), listed as TPBI): did not result in any considerable change
2 | O=C(O)c1ccccc1 [BA, benzoic acid, reference compound] | did not result to a considerable change | did not result in cytotoxic effects | – | did not result to a considerable change | did not result in cytotoxic effects | –
3 | CN(C(=O)CC(=O)N(C)c1c(I)c(C(=O)NC(CO)C(O)CO)c(I)c(C(=O)NC(CO)C(O)CO)c1I)c1c(I)c(C(=O)NC(CO)C(O)CO)c(I)c(C(=O)NC(CO)C(O)CO)c1I (centres unmarked) [iotrolan] | – | – | – | – | – | concentration at which apoptosis is induced [4]: 250 mg iodine per millilitre
4 | CC(=O)Nc1c(I)c(NC(C)=O)c(I)c(C(=O)O)c1I [diatrizoate] | – | – | – | – | – | concentration at which apoptosis is induced [4]: 250 mg iodine per millilitre
5 | trichlorobenzoic acid [TCBA, reference compound] | did not result in any considerable change | – | did not result in any influence on the cell viability | did not result in any considerable change | – | staining rate / number of stained cells ([1]; listed as trichlorobenzoic acid): only few cells stained in their nuclei; cells strongly stained by FITC, FACS histogram [1]: no shift of the histogram peak to the right; cell death / vitality (annexin-V-Alexa 568, propidium iodide) ([2]; free compound co-incubated with conjugate 3 (260 μM), listed as trichlorobenzoic acid): remain vital; cells strongly stained by FITC, FACS histogram [5]: no shift of the histogram peak to the right
6 | O=C(O)c1ccc(I)cc1 [MIBA, 4-monoiodobenzoic acid, reference compound] | did not result in a higher staining rate; also recorded: did not result to a considerable change | did not result in cytotoxic effects | – | did not result in a binding of annexin-V-Alexa™ 568; also recorded: did not result to a considerable change | did not result in cytotoxic effects | –
7 | trifluorobenzoic acid [TFBA, reference compound] | few stained cells; also recorded: did not result in any considerable change | – | did not result in any influence on the cell viability | remain vital; also recorded: did not result in any considerable change | – | cells strongly stained by FITC, FACS histogram [1]: no shift of the histogram peak to the right; cells strongly stained by FITC, FACS histogram [5]: no shift of the histogram peak to the right
8 | O=C(O)c1cc(I)ccc1I [DIBA, 2,5-diiodobenzoic acid, reference compound] | did not result in a higher staining rate; also recorded: did not result to a considerable change | did not result in cytotoxic effects | – | did not result in a binding of annexin-V-Alexa™ 568; also recorded: did not result to a considerable change | did not result in cytotoxic effects | –
